Results as given in ChEMBL document CHEMBL1201862, “PubChem BioAssay data set” (2004).
Calls of active or inactive are those of the source.

Assays:
[1] = molecular target: T1, Short transient receptor potential channel 4 (Mus musculus, UniProt Q9QUQ5); assay: block of DAMGO-driven TRPC4 calcium entry – cell-based, HEK293 TRPC4/mu-opioid, Fluo-4 calcium, dose response (AID 434942); format: functional;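 further: potency of inhibitors blocking the TRPC4 calcium response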
T1 sequence (Q9QUQ5 whole entry): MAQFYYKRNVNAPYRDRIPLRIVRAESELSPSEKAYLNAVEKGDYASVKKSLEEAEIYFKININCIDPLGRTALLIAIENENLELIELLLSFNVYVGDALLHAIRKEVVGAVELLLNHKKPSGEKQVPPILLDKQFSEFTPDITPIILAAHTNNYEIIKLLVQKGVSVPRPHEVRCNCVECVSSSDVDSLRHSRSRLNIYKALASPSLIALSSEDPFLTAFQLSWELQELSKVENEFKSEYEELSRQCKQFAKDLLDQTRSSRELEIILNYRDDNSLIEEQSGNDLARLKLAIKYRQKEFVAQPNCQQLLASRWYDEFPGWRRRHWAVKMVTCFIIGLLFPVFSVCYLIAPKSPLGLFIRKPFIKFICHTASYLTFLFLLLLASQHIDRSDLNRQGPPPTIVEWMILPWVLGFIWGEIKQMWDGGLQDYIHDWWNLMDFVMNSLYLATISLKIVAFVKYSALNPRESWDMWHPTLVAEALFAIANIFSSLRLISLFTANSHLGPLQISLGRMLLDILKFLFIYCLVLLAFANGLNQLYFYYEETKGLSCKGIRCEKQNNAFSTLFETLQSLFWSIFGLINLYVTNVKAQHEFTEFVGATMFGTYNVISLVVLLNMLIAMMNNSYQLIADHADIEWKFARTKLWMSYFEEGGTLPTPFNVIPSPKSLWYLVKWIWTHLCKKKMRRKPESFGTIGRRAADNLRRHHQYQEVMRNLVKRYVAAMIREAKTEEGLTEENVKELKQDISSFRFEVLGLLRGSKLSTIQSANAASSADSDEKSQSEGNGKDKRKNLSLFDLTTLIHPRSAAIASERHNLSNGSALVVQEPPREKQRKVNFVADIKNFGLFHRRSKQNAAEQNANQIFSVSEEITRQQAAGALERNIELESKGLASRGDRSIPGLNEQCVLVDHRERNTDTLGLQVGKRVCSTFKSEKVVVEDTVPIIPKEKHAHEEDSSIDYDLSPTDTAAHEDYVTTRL

Large T antigen = Large T antigen (Simian virus 40, UniProt P03070); format: functional, Betapolyomavirus macacae;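 further: Confirmatory-stage PubChem screen for compounds that inhibit SV40 T antigen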
Large T antigen, sequence (P03070 whole entry, the tested form may be a part): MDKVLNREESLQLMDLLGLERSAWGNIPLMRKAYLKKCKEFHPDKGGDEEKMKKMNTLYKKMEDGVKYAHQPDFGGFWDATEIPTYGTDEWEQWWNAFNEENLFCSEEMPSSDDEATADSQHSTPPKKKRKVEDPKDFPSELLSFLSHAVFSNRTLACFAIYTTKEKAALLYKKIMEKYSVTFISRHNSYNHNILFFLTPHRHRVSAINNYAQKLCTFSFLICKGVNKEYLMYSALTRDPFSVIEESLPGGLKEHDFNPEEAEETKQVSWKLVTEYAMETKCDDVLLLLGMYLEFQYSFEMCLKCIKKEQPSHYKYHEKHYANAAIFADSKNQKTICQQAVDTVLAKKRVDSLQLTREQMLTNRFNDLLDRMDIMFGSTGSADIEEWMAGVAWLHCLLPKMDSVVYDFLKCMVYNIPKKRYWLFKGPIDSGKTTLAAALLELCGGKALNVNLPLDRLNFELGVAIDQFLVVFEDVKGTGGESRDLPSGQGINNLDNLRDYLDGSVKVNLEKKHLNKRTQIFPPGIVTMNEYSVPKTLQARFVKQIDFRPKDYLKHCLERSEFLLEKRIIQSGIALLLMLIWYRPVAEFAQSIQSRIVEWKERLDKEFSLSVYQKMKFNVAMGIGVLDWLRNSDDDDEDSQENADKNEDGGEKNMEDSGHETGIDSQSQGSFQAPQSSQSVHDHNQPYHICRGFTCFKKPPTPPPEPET

[2] = blockers of HIV-1 envelope-mediated cell-cell fusion – cherry-pick, dose response (AID 652057); format: functional, cell-based
[3] = HIV-1 AD8 envelope cell-cell fusion blockers – cherry-pick, dose response (AID 652062); format: functional, cell-based;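 further: luciferase signal from cell-cell fusion driven by HIV-1 clade B AD8 Env; potency is for inhibitors of fusion seen as a drop in luminescence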
[4] = P. falciparum Dd2 growth inhibitors, dose response, SYBR Green, cherry-picked samples (AID 1159567); format: functional, cell-based
Protein skinhead-1 = molecular target: T2, Protein skinhead-1 (Caenorhabditis elegans, UniProt P34707); format: functional
T2 sequence (P34707 whole entry): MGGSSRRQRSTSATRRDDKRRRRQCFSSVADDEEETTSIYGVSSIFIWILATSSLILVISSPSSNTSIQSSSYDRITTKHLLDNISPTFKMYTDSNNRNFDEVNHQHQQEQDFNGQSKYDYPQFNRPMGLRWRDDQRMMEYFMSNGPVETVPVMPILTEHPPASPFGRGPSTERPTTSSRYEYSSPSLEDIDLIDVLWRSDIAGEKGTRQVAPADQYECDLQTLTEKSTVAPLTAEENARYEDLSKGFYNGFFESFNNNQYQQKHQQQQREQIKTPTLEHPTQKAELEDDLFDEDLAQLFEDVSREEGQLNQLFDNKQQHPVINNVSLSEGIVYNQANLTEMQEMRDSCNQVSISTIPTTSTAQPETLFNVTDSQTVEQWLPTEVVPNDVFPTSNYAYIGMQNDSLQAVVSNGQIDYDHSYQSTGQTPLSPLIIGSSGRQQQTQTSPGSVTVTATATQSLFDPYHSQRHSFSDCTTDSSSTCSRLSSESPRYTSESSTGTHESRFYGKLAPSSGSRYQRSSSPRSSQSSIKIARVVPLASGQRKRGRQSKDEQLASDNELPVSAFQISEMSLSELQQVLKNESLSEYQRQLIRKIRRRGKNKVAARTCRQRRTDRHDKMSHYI

[5] = test system: Streptococcus sp. 'group A'; assay: Streptococcus pyogenes SK(-)GAS viability under kanamycin – luminescence, BacTiterGlo, confirmation, counter-screen for streptokinase expression inhibitor project, dose response (AID 1900); format: functional, organism-based
Streptokinase A = molecular target: T3, Streptokinase A (Streptococcus pyogenes serotype M1, UniProt P10520); assay: viability-normalized secreted streptokinase activity reduction – plasminogen activation absorbance, OD405, dose response (AID 1914); format: functional, Streptococcus pyogenes M1 GAS;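 further: secreted streptokinase activity via plasminogen activation per viability signal from cell pellet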
T3 sequence (P10520 whole entry): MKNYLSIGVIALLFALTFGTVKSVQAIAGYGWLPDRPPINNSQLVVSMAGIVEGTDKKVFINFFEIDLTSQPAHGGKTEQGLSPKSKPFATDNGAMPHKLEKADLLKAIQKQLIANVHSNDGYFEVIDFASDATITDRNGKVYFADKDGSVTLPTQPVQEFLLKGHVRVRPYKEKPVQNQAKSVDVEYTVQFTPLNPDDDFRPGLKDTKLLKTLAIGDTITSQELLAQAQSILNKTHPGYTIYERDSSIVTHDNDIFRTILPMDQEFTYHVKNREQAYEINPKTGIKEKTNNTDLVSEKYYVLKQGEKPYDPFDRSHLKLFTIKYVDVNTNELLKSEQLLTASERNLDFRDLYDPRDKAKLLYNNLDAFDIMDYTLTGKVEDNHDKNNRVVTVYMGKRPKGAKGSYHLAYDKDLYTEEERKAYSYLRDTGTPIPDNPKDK

[6] = Luminescence Cell-Based Dose Retest to Confirm Inhibitors of Cancer Stem Cells. [Related pubchem assays (depositor defined):AID2717, AID2721]; format: functional; conditions: Homo sapiens
Streptococcus = assay: GAS UMAA2166 growth inhibition – luminescence, BacTiterGlo, counter-screen for streptokinase expression inhibitor project, dose response (AID 1915); format: functional, organism-based;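 further: potency for reduction of bacterial viability or growth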
[7] = molecular target: T4, Rac GTPase-activating protein 1 (Homo sapiens, UniProt Q9H0H5); assay: blockers of MgcRacGAP-driven Rac1 GTP hydrolysis – biochemical, ADP Hunter fluorescence, primary and confirmatory, confirmation (AID 624330); format: functional
T4 sequence (Q9H0H5 whole entry): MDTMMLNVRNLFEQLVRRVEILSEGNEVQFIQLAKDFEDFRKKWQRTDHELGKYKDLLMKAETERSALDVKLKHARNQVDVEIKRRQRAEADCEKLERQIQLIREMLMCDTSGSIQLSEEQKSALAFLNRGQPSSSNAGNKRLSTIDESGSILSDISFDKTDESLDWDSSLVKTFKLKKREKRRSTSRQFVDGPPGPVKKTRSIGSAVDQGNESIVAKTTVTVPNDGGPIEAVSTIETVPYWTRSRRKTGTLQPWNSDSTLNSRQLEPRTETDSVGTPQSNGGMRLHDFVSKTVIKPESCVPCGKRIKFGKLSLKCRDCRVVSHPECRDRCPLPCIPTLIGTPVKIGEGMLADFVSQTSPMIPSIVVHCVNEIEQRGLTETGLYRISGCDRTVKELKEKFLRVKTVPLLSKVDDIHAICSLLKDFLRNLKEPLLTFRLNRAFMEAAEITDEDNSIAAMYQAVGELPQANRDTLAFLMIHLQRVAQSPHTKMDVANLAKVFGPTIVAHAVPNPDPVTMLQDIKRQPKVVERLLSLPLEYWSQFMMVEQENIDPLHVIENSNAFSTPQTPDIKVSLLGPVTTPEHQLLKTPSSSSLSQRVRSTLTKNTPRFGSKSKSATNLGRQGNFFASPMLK

With CCCc1nc(SC2CCCC2)c2c(=O)n(C)c(=O)n(C)c2n1 the EC50 [1] was 4.73 µM (active).
With CN(C)c1ccc(C(=O)c2ccc(N(C)C)c(N)c2)cc1N the IC50 (Large T antigen) was 19.3 µM (active).
In the case of O=S(=O)(c1ccc(NC(=S)N2CCN(c3ccc(O)cc3)CC2)cc1)N1CCOCC1, the IC50 (Large T antigen) is reported as 9.69 µM (active).
In the case of Cc1ccc(C(=O)C2=C(O)C(=O)N(Cc3cccnc3)C2c2ccc(Cl)c(Cl)c2)o1 (configuration not stated), the EC50 [1] is reported as 6.68 µM (active).
For Cc1ccc(S(=O)(=O)N(C)C[C@@H]2Oc3ccc(NC(=O)Cc4ccccc4)cc3CC(=O)N([C@H](C)CO)C[C@@H]2C)cc1, the AC50 [2] was < 0.26 µM (active) and the AC50 [3] was 2.32 µM (active).
With COc1ccc(C#Cc2ccc3c(c2)[C@@H]2[C@@H](CCN2C(=O)C2CCC2)[C@H](CO)N3)cc1 the AC50 [4] was 5.78 µM (active).
In the case of CC1CCN(C(C)C(=O)Nc2ccccc2-c2ccccc2)CC1 (configuration not stated), the EC50 [1] is reported as 5.31 µM (active) and the IC50 (Protein skinhead-1) is reported as > 100 µM (inactive).
In the case of Cc1ccc(N=C(S)Nc2ccc(C(C)C)cc2)cc1S(=O)(=O)N1CCCCCC1, the EC50 [5] is reported as 13.2 µM (active), the EC50 (Streptokinase A) is reported as > 150 µM (not active) and the AC50 [6] is reported as 2.1 µM (active). The EC50 (Streptococcus) was > 150 µM (not active).
In the case of O=C1CCCC(O)=C1/C=N/c1ccc(O)cc1, the IC50 [7] is reported as 16.7 µM (active) and the IC50 (Large T antigen) is reported as 12.3 µM (active).
In the case of COc1ccc2c3c([nH]c2c1)[C@@H](CO)N(C(=O)Nc1cccc(F)c1)CC31CN(CC2CCOCC2)C1, the AC50 [4] is reported as 4.22 µM (active).
In the case of C/C=C/c1ccc([C@H]2[C@H](CO)N(S(=O)(=O)Cc3ccccc3)C23CN(C(=O)C2CCCC2)C3)cc1, the AC50 [4] is reported as 5.3 µM (active).
